# Results reported in publication PMC6086040, “Real-time tracking of complex ubiquitination cascades using a fluorescent confocal on-bead assay” (BMC Biology, 2018).
# Experiments:
# Format in all cases: biochemical
# Ube1 [1] = target: T1, Ube1 (Homo sapiens, UniProt P22314); assay: Gel-based Ube1~Ub thioester assay and on-bead UPS-CONA with Ube1 alone
# T1 construct: gene UBA1
# T1 sequence (P22314 2-1058): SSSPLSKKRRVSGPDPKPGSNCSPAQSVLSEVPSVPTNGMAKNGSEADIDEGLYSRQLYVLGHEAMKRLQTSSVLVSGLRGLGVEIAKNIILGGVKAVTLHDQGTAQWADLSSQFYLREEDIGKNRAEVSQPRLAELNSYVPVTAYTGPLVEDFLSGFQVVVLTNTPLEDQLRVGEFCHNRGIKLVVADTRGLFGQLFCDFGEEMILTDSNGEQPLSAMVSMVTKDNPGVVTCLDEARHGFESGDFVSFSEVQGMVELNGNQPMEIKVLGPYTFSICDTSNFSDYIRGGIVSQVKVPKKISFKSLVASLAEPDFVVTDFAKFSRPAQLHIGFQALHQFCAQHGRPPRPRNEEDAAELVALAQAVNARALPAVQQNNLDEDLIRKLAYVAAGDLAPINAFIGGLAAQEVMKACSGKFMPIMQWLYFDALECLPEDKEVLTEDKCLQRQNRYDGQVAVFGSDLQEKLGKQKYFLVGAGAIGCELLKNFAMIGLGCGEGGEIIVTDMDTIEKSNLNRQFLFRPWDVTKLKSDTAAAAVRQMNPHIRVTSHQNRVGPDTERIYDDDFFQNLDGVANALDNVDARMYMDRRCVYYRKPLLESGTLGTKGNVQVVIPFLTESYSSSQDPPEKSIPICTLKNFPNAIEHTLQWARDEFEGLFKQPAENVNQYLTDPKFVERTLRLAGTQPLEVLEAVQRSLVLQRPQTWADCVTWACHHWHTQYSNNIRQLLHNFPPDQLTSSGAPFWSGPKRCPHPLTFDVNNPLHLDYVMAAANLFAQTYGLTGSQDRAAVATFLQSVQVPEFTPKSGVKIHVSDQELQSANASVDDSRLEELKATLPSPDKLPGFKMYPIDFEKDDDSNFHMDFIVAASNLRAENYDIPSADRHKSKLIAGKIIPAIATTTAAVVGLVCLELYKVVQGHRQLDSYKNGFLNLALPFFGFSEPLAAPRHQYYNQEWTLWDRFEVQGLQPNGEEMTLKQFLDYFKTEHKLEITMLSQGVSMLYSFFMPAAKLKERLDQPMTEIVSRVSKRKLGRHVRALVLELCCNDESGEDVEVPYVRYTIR
# Ube2L3 = target: T2, Ube2L3 (Homo sapiens, UniProt P68036); assay: On-bead UPS-CONA, concentration-dependent inhibition on eGFP-Ube2L3
# T2 construct: eGFP-Ube2L3
# Ube1 [2] = target: T1, Ube1; assay: Gel-based Ube1~Ub thioester assay with purified Ube1; also on-bead UPS-CONA with Ube1 alone (IC50 below […])
# T2 sequence (P68036 whole entry, one chain of several): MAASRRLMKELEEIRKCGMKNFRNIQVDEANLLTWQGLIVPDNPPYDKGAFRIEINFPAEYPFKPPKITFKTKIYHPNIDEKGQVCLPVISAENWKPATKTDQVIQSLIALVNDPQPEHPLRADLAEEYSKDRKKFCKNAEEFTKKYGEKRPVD
IC50 (Ube1 [1]) [µM],IC50 (Ube2L3) [µM],IC50 (Ube1 [2]) [µM],SMILES
16,–,–,CCc1ccc(/C=C/C(=O)Nc2ccc(C(C)=O)cc2)o1 [heclin]
–,7.5,~4.6,Cc1ccc(S(=O)(=O)/C=C/C#N)cc1 [BAY 11-7082]
